Reference: patent publication US10259818B2, “Bicyclic azaheterocyclobenzylamines as PI3K inhibitors” (Incyte Corporation, priority 2012, dated 2019)

How the values were obtained:
[1] = tested on: SUDHL-6 cell line (diffuse large B cell lymphoma); experiment: SUDHL-6 cell proliferation assay (Example B3); type: cell-based; details: SUDHL-6 cells, 3 days, Cell Titer-GLO
Summary of the method: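 Cells in RPMI/10% FBS, 5000 per well, exposed to a concentration range of test compound for 3 days. Viability read as ATP content by CellTiter-Glo luminescence after 10 min at room temperature; IC50 derived from the luminescence.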

[2] = biological target: PI3Kδ (Homo sapiens (Human), UniProt O00329); experiment: PI3K enzyme assay, [γ-33P]ATP filter plate (Example A2); type: biochemical; details: Assay A2 (filter plate, 1000 μM ATP)
Sequence of PI3Kδ (O00329 whole entry): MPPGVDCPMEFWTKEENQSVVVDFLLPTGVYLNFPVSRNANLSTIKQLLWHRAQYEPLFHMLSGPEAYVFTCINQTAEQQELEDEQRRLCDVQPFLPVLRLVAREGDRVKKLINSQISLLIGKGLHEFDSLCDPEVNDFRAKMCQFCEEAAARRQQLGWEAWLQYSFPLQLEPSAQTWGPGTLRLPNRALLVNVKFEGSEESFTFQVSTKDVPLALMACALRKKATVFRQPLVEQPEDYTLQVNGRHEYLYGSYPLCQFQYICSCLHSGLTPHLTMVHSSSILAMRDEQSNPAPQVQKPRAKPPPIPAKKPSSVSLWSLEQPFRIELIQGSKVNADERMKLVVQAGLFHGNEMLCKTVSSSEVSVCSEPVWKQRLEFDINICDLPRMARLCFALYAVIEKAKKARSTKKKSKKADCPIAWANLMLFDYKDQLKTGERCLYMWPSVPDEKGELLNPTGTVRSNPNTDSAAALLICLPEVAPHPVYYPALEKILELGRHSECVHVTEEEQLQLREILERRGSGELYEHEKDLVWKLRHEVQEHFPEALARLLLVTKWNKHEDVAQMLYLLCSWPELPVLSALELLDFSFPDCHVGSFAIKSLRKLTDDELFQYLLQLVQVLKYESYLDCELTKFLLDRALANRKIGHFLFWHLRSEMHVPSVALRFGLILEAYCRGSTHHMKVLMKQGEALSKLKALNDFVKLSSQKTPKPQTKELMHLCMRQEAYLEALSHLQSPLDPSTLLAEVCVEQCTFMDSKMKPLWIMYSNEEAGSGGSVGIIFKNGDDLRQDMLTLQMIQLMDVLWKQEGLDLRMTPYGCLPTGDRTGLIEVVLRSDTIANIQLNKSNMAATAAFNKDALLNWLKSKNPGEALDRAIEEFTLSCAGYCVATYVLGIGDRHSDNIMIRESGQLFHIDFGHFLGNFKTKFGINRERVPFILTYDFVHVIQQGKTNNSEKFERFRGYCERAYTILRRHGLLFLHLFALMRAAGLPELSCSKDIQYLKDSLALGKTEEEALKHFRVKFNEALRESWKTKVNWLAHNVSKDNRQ
Sequence of PI3Kδ (P27986 whole entry partner): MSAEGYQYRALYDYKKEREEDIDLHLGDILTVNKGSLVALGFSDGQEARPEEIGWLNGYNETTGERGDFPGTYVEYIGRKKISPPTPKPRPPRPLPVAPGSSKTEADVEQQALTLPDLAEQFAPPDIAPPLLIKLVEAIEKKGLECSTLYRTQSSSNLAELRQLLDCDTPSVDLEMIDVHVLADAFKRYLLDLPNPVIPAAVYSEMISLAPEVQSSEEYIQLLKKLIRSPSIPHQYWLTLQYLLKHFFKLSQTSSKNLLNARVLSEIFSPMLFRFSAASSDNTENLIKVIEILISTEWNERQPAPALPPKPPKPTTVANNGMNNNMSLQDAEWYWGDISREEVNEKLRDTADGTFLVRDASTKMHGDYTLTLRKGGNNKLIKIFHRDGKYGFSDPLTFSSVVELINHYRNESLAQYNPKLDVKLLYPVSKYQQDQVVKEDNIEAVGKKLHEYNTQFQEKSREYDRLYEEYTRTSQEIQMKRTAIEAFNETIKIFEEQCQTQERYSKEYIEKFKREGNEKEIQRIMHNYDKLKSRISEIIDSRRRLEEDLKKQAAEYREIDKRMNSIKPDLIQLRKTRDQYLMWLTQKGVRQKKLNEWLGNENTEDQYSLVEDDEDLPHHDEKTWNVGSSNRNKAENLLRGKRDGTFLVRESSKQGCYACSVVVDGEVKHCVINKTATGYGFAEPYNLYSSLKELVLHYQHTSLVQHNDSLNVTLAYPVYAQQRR
Experimental: Example A2: PI3K Enzyme Assay
Lipid kinase substrate, phosphoinositol-4,5-bisphosphate (PIP2), are purchased from Echelon Biosciences (Salt Lake City, Utah). PI3K isoforms α, β, δ and γ are purchased from Millipore (Bedford, Mass.). ATP, MgCl2, DTT, EDTA, MOPS and CHAPS are purchased from Sigma-Aldrich (St. Louis, Mo.).
The kinase reaction are conducted in clear-bottom 96-well plate from Thermo Fisher Scientific in a final volume of 24 μL. Inhibitors are first diluted serially in DMSO and added to the plate wells before the addition of other reaction components. The final concentration of DMSO in the assay is 0.5%. The PI3K assays are carried out at room temperature in 20 mM MOPS, pH 6.7, 10 mM MgCl2, 5 mM DTT and CHAPS 0.03%. The reaction mixture is prepared containing 50 μM PIP2, kinase and varying concentration of inhibitors. Reactions are initiated by the addition of ATP containing 2.2 μCi [γ-^33P]ATP to a final concentration of 1000 μM. The final concentration of PI3K isoforms α, β, δ and γ in the assay were 1.3, 9.4, 2.9 and 10.8 nM, respectively. Reactions are incubated for 180 minutes and terminated by the addition of 100 μL of 1 M potassium phosphate pH 8.0, 30 mM EDTA quench buffer. A 100 μL aliquot of the reaction solution are then transferred to 96-well Millipore MultiScreen IP […] PVDF filter plate (The filter plate is prewetted with 200 μL 100% ethanol, distilled water, and 1 M potassium phosphate pH 8.0, respectively). The filter plate is aspirated on a Millipore Manifold under vacuum and washed with 18×200 μL wash buffer containing 1 M potassium phosphate pH 8.0 and 1 mM ATP. After drying by aspiration and blotting, the plate is air dried in an incubator at 37° C. overnight. Packard TopCount adapter (Millipore) is then attached to the plate followed with addition of 120 μL Microscint 20 scintillation cocktail (Perkin Elmer) in each well. After the plate sealing, the radioactivity of the product is determined by scintillation counting on Topcount (Perkin-Elmer). IC50 determination is performed by fitting the curve of percent control activity versus the log of the inhibitor concentration using the GraphPad Prism 3.0 software.

| SMILES | IC50 [1] [nM] | IC50 [2] [nM] | IC50 ([1]; Homo sapiens, SU-DHL-6, 72 h) [nM] |
| --- | --- | --- | --- |
| Cc1nn(C(C)c2cc(Cl)c(F)c3c2OC(C)CN(C2CN(C(=O)OC(C)(C)C)C2)C3)c2ncnc(N)c12 (single isomer, unassigned) [Example 27, tert-Butyl 3-[9-[1-(4-amino-3-methyl-1H-pyrazolo[3,4-d]pyrimidin-1-yl)ethyl]-7-chloro-6-fluoro-2-methyl-2,3-dihydro-1,4-benzoxazepin-4(5H)-yl]azetidine-1-carboxylate] | ≤ 500 | ≤ 100 | – |
| COC(=O)N1CC(N2Cc3c(F)c(Cl)cc(C(C)n4nc(C)c5c(N)ncnc54)c3OC(C)C2)C1 (single isomer, unassigned) [Example 79, methyl 3-[9-[1-(4-amino-3-methyl-1H-pyrazolo[3,4-d]pyrimidin-1-yl)ethyl]-7-chloro-6-fluoro-2-methyl-2,3-dihydro-1,4-benzoxazepin-4(5H)-yl]azetidine-1-carboxylate] | – | ≤ 100 | – |
| CCOC(=O)N1CC(N2CCOc3c(C(C)n4nc(C)c5c(N)ncnc54)cc(Cl)c(C#N)c3C2)C1 (centres unmarked) [Example 92, ethyl 3-[9-[1-(4-amino-3-methyl-1H-pyrazolo[3,4-d]pyrimidin-1-yl)ethyl]-7-chloro-6-cyano-2,3-dihydro-1,4-benzoxazepin-4(5H)-yl]azetidine-1-carboxylate] | – | – | ≤ 500 |
| CCC(=O)N1CC(N2Cc3c(C#N)c(Cl)cc(C(C)n4nc(C)c5c(N)ncnc54)c3OC(C)C2)C1 (centres unmarked) [Example 96, 9-[1-(4-amino-3-methyl-1H-pyrazolo[3,4-d]pyrimidin-1-yl)ethyl]-7-chloro-2-methyl-4-(1-propionylazetidin-3-yl)-2,3,4,5-tetrahydro-1,4-benzoxazepine-6-carbonitrile] | – | ≤ 100 | ≤ 500 |

Now from value to molecule:

| IC50 [1] [nM] | IC50 [2] [nM] | IC50 ([1]; Homo sapiens, SU-DHL-6, 72 h) [nM] | SMILES |
| --- | --- | --- | --- |
| – | ≤ 100 | ≤ 500 | Cc1nn(C(C)c2cc(Cl)c(F)c3c2OCCCN(S(C)(=O)=O)C3)c2ncnc(N)c12 (centres unmarked) [Example 45, 1-{1-[8-Chloro-7-fluoro-5-(methylsulfonyl)-3,4,5,6-tetrahydro-2H-1,5-benzoxazocin-10-yl]ethyl}-3-methyl-1H-pyrazolo[3,4-d]pyrimidin-4-amine] |
| – | – | ≤ 500 | CCC(=O)N1CC(N2CCOc3c(C(C)n4nc(C)c5c(N)ncnc54)cc(Cl)c(C#N)c3C2)C1 (centres unmarked) [Example 89, 9-[1-(4-amino-3-methyl-1H-pyrazolo[3,4-d]pyrimidin-1-yl)ethyl]-7-chloro-4-(1-propionylazetidin-3-yl)-2,3,4,5-tetrahydro-1,4-benzoxazepine-6-carbonitrile] |
| – | – | ≤ 500 | Cc1nn(C(C)c2cc(Cl)c(C#N)c3c2OCCN(C2CN(S(C)(=O)=O)C2)C3)c2ncnc(N)c12 (centres unmarked) [Example 90, 9-[1-(4-amino-3-methyl-1H-pyrazolo[3,4-d]pyrimidin-1-yl)ethyl]-7-chloro-4-[1-(methylsulfonyl)azetidin-3-yl]-2,3,4,5-tetrahydro-1,4-benzoxazepine-6-carbonitrile] |
| – | – | ≤ 500 | Cc1nn(C(C)c2cc(Cl)c(C#N)c3c2OCCN(C2CN(C(=O)NC(C)C)C2)C3)c2ncnc(N)c12 (centres unmarked) [Example 91, 3-[9-[1-(4-amino-3-methyl-1H-pyrazolo[3,4-d]pyrimidin-1-yl)ethyl]-7-chloro-6-cyano-2,3-dihydro-1,4-benzoxazepin-4(5H)-yl]-N-isopropylazetidine-1-carboxamide] |
